“And” between values parts separate entries of the source, which are not always exact repeats. Equal entries are not always repeated. Structures can show the parent of a compound that is named as a salt.

The text below walks through data of a flash point compilation (Sun et al. 2020).

The compound `O=C(OCc1ccccc1)c1ccccc1` [benzyl benzoate] displayed a flash point of 147 °C.
Then `N#CCc1ccccc1` [benzyl cyanide], with 101 °C; and `CCCCOCC` [butyl ethyl ether], with -5 °C; and `CCCCN=C=O` [butyl isocyanate], with 29 °C.
To `CCCC=O` [butyraldehyde] belongs -6 °C.
In turn, `CCCC(=O)OC(=O)CCC` [butyric anhydride] had a flash point of 87 °C.
Then `Clc1ccccc1` [chlorobenzene], with 27 °C.
To `O=CC=Cc1ccccc1` [cinnamaldehyde] belongs 71 °C.
Turning to `C[C@H]1CC[C@@H](C)CC1` [cis-1,4-dimethylcyclohexane], the flash point is 6 °C.
As for `C/C=C/C(=O)O` [crotonic acid], the flash point stood at 88 °C.
To `C1CCC1` [cyclobutane] belongs -65 °C.
To `NC1CCC1` [cyclobutylamine] belongs -4 °C; to `OC1CCCCCC1` [cycloheptanol], 71 °C.
To `O=C1CCCCCC1` [cycloheptanone] belongs 55 °C; to `NC1CCCCC1` [cyclohexylamine], 28 °C; to `OC1CCCC1` [cyclopentanol], 51 °C.
Turning to `C1CC1` [cyclopropane], the flash point is -95 °C.
To `CC(C)(C)SC(C)(C)C` [di-t-butyl sulfide] belongs 48 °C; to `CCSSCC` [diethyl disulfide], 40 °C; to `CCOC(=O)/C=C/C(=O)OCC` [diethyl fumarate], 91 °C.
To `CCNCC` [diethylamine] belongs -26 °C and -23 °C; to `CCCCOCCOCCOCCCC` [diethylene glycol dibutyl ether], 117 °C.
Then `CC(C)CC(=O)CC(C)C` [diisobutyl ketone], with 49 °C.
Consider `COC` [dimethylether], for which the flash point was -83 °C.
Then `CS(C)=O` [dimethylsulfoxide], with 88 °C; and `CCCCCOCCCCC` [dipentylether], with 57 °C.
`c1ccc(Cc2ccccc2)cc1` [diphenylmethane] came in with a flash point of 127 °C.
Then `CCCCCCCCCCCCCCCCCCCC` [eicosane], with 169 °C.
To `CC=O` [ethanal] belongs -39 °C; to `CCS` [ethanethiol], -48 °C; to `CC(=O)O` [ethanoic acid], 39 °C.
To `C=CC(=O)OCC` [ethyl acrylate] belongs 9 °C; to `CCCC(=O)OCC` [ethyl butyrate], 19 °C; to `CCOC(=O)C(C)C` [ethyl isobutyrate], 13 °C.
For `C=COCC` [ethyl vinyl ether], the flash point is -45 °C.
Then `CCN` [ethylamine], with -17 °C; and `Fc1ccccc1` [fluorobenzene], with -15 °C.
Then `OCc1ccco1` [furfuryl alcohol], with 65 °C.
Compound `CCCCCCC#N` [heptanenitrile] gave a flash point of 58 °C.
To `C1CCCNCC1` [hexamethyleneimine] belongs 18 °C.
Then `CC(C)COC=O` [isobutyl formate], with 10 °C; and `CC(C)C=O` [isobutyraldehyde], with -24 °C; and `CC(C)C(=O)O` [isobutyric acid], with 55 °C.
`CC(=O)OCCC(C)C` [isopentyl acetate] had a flash point of 25 °C.
Then `CC1=CC(=O)CC(C)(C)C1` [isophorone], with 84 °C.
To `CC(=O)OC(C)C` [isopropyl acetate] belongs 2 °C; to `CC(C)OC(C)C` [isopropyl ether], -29 °C; to `CC(C)C1CCCCC1` [isopropylcyclohexane], 35 °C.
To `Clc1cccc(Cl)c1` [m-dichlorobenzene] belongs 63 °C.
Regarding `CC(=O)C=C(C)C` [mesityl oxide], the flash point was determined as 25 °C.
Then `Cc1cc(C)cc(C)c1` [mesitylene], with 50 °C.
The compound `C=C(C)C#N` [methacrylonitrile] returned a flash point of 1 °C.
On to `COC(=O)c1ccccc1` [methyl benzoate], for which the flash point came to 83 °C.
To `CN=C=S` [methyl isothiocyanate] belongs 32 °C; to `COC(=O)c1ccccc1O` [methyl salicylate], 96 °C; to `CCC(C)OC` (configuration not stated) [methyl sec-butyl ether], -30 °C.
Then `CCC(C)(C)OC` [methyl tert-pentyl ether], with -11 °C; and `CN` [methylamine], with -62 °C.
Compound `CN(CCO)CCO` [methyldiethanolamine] registered a flash point of 138 °C.
Then `CCCCOC(C)=O` [n-butyl acetate], with 22 °C.
Consider `CCCCON=O` [n-butyl nitrite], for which the flash point was -13 °C.
To `CCCC(=O)O` [n-butyric acid] belongs 69 °C.
To `CCCC#N` [n-butyronitrile] belongs 16 °C.
`CCCCCCCCCC` [n-decane] showed a flash point of 51 °C.
Consider `CCCOCCC` [n-propyl ether], for which the flash point is -28 °C.
Then `CCCCCCCC#N` [octanenitrile], with 73 °C; and `CCCCCCCCN` [octylamine], with 60 °C.
Then `Clc1ccc(Cl)cc1` [p-dichlorobenzene], with 66 °C; and `CCCCCc1ccccc1` [pentylbenzene], with 65 °C; and `O=C1OC(=O)c2ccccc21` [phthalic anhydride], with 152 °C.
With `C1CCNCC1.Cl` [piperidine hydrochloride], the flash point was found to be 65 °C.
To `CCC=O` [propionaldehyde] belongs -40 °C; to `CCCOC(=O)CCC` [propyl butyrate], 37 °C; to `c1cncnc1` [pyrimidine], 31 °C.
To `CCC(C)O` (configuration not stated) [sec-butanol] belongs 26 °C; to `CCC(C)OC(C)=O` (configuration not stated) [sec-butyl acetate], 16 °C.
For `CC(=O)CC(=O)OC(C)(C)C` [t-butyl acetoacetate], the flash point is 60 °C.
In turn, `CC(C)(C)c1ccccc1` [t-butylbenzene] registered a flash point of 60 °C.
To `CC(C)(C)C1CCCCC1` [t-butylcyclohexane] belongs 42 °C; to `CCC(C)(C)O.CCC(C)(C)O` [tert-amyl alcohol (2-methyl-2-butanol)], 20 °C; to `CCCCN(CCCC)CCCC` [tributylamine], 72 °C.
In the case of `CCOC(OCC)OCC` [triethoxymethane], the flash point is 30 °C.
